Article PMC5909127, “Optimization of a “bump-and-hole” approach to allele-selective BET bromodomain inhibition” (Chemical Science, 2018)

Legend:
Test in all cases: kinase Express Screen
Format in all cases: biochemical
AMPK (hum) = AMPK (hum) (Homo sapiens, UniProt Q13131)
Procedure: (§1) Kinase Remaining activity
(§2) Table S9. 9-ME-1 Kinase Screen
(§3) Activity of panel of human kinases following treatment with 1 µM (2R, 3S)-7. Dundee MRC-PPU Express Screen
(§4) (http://www.kinase-screen.mrc.ac.uk/services/express-screen)

Aurora B = Aurora B (Homo sapiens, UniProt Q96GD4)
Procedure: as §1, §2, §3, §4

BTK = BTK (Homo sapiens, UniProt Q06187)
Procedure: as §1, §2, §3, §4

CAMK1 = CAMK1 (Homo sapiens, UniProt Q14012)
Procedure: as §1, §2, §3, §4

CAMKKb = CAMKKb (Homo sapiens, UniProt Q96RR4)
Procedure: as §1, §2, §3, §4

CK1δ = CK1δ (Homo sapiens, UniProt P48730)
Procedure: as §1, §2, §3, §4

CK2 = CK2 (Homo sapiens, UniProt P68400)
Procedure: as §1, §2, §3, §4

DYRK1A = DYRK1A (Homo sapiens, UniProt Q13627)
Procedure: as §1, §2, §3, §4

EF2K = EF2K (Homo sapiens, UniProt O00418)
Procedure: as §1, §2, §3, §4

GSK3b = GSK3b (Homo sapiens, UniProt P49841)
Procedure: as §1, §2, §3, §4

HER4 = HER4 (Homo sapiens, UniProt Q15303)
Procedure: as §1, §2, §3, §4

HIPK2 = HIPK2 (Homo sapiens, UniProt Q9H2X6)
Chain of HIPK2 (Q9H2X6 whole entry): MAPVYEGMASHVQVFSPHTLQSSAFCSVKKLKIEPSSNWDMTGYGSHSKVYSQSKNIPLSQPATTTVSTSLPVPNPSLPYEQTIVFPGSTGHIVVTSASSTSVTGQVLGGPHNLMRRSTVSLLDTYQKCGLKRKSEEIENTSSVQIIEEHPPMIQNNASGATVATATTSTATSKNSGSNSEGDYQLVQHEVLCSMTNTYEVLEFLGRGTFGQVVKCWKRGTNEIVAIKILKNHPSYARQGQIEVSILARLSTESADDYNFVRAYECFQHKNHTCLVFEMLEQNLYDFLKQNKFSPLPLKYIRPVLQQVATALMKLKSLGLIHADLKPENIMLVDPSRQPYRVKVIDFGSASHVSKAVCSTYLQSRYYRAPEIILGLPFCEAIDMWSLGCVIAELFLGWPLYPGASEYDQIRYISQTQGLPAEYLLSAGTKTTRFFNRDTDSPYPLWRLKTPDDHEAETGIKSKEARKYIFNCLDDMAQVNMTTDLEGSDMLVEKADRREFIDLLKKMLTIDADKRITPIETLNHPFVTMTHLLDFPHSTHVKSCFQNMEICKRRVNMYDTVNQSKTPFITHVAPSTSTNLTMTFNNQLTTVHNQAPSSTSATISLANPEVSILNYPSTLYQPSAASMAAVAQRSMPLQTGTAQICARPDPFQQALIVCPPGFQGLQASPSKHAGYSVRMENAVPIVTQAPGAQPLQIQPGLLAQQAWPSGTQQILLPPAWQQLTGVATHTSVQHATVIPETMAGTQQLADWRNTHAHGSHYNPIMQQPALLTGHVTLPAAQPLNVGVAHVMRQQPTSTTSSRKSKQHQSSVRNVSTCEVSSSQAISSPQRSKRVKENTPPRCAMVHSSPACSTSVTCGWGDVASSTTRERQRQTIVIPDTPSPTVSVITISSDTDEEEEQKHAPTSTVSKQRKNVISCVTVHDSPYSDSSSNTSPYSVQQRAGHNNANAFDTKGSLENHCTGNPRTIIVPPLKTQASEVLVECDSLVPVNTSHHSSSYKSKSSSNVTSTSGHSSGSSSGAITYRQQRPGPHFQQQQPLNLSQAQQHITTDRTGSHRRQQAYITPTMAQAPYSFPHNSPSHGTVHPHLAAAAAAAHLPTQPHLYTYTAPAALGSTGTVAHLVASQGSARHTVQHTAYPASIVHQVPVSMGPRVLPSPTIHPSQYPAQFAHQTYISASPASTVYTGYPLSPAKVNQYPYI
Procedure: as §1, §2, §3, §4

IGF-1R = IGF-1R (Homo sapiens, UniProt P08069)
Procedure: as §1, §2, §3, §4

IRAK4 = IRAK4 (Homo sapiens, UniProt Q9NWZ3)
Procedure: as §1, §2, §3, §4

JAK3 = JAK3 (Homo sapiens, UniProt P52333)
Chain of JAK3 (P52333 whole entry): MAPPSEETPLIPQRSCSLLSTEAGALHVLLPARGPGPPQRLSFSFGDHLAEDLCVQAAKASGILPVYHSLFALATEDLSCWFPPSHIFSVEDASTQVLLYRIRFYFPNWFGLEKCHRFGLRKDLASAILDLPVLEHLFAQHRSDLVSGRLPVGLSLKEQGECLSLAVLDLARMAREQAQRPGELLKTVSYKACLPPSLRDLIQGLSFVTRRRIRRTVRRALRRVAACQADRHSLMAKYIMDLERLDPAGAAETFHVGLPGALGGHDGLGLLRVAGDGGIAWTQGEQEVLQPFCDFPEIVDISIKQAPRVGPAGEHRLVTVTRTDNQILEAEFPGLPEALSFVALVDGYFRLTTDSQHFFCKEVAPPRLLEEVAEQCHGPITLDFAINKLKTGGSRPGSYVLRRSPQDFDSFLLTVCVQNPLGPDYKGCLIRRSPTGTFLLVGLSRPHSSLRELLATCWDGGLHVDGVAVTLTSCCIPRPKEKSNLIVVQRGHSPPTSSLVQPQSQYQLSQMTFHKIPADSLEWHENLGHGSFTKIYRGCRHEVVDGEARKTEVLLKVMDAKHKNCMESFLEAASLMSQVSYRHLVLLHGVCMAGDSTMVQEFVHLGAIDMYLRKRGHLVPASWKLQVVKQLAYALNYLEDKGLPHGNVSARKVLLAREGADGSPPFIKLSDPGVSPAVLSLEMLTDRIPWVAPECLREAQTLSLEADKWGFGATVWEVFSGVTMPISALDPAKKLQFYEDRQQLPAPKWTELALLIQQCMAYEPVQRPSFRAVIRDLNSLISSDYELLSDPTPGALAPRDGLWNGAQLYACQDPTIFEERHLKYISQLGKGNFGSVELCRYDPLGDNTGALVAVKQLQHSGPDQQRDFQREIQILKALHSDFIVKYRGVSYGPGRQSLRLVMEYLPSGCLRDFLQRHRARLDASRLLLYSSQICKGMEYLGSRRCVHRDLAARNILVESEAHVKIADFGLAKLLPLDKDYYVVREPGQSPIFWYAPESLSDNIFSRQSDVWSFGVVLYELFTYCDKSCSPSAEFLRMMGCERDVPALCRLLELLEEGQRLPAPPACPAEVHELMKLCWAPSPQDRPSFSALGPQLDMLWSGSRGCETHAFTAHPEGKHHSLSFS
Procedure: as §1, §2, §3, §4

JNK1 = JNK1 (Homo sapiens, UniProt P45983)
Procedure: as §1, §2, §3, §4

LKB1 = LKB1 (Homo sapiens, UniProt Q15831)
Procedure: as §1, §2, §3, §4

MARK3 = MARK3 (Homo sapiens, UniProt P27448)
Procedure: as §1, §2, §3, §4

MLK3 = MLK3 (Homo sapiens, UniProt Q16584)
Procedure: as §1, §2, §3, §4

MSK1 = MSK1 (Homo sapiens, UniProt O75582)
Procedure: as §1, §2, §3, §4

MST2 = MST2 (Homo sapiens, UniProt Q13188)
Procedure: as §1, §2, §3, §4

NEK6 = NEK6 (Homo sapiens, UniProt Q9HC98)
Procedure: as §1, §2, §3, §4

PAK4 = PAK4 (Homo sapiens, UniProt O96013)
Procedure: as §1, §2, §3, §4

PDK1 = PDK1 (Homo sapiens, UniProt O15530)
Procedure: as §1, §2, §3, §4

PIM1 = PIM1 (Homo sapiens, UniProt P11309)
Chain of PIM1 (P11309 whole entry): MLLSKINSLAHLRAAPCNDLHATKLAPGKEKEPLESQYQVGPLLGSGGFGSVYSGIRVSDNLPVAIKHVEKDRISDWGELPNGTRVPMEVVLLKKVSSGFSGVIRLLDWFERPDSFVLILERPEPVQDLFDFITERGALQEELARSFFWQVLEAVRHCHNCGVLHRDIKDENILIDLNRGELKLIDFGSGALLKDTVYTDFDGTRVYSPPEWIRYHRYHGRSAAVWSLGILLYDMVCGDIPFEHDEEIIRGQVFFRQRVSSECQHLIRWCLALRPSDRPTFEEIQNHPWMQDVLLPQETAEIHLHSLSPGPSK
Procedure: as §1, §2, §3, §4

PKA = PKA (Homo sapiens, UniProt P17612)
Procedure: as §1, §2, §3, §4

PKBa = PKBa (Homo sapiens, UniProt P31749)
Procedure: as §1, §2, §3, §4

PKD1 = PKD1 (Homo sapiens, UniProt Q15139)
Procedure: as §1, §2, §3, §4

PRK2 = PRK2 (Homo sapiens, UniProt Q16513)
Procedure: as §1, §2, §3, §4

RIPK2 = RIPK2 (Homo sapiens, UniProt O43353)
Procedure: as §1, §2, §3, §4

ROCK 2 = ROCK 2 (Homo sapiens, UniProt O75116)
Procedure: as §1, §2, §3, §4

RSK1 = RSK1 (Homo sapiens, UniProt Q15418)
Procedure: as §1, §2, §3, §4

S6K1 = S6K1 (Homo sapiens, UniProt P23443)
Procedure: as §1, §2, §3, §4

SGK1 = SGK1 (Homo sapiens, UniProt O00141)
Procedure: as §1, §2, §3, §4

SRPK1 = SRPK1 (Homo sapiens, UniProt Q96SB4)
Chain of SRPK1 (Q96SB4 whole entry): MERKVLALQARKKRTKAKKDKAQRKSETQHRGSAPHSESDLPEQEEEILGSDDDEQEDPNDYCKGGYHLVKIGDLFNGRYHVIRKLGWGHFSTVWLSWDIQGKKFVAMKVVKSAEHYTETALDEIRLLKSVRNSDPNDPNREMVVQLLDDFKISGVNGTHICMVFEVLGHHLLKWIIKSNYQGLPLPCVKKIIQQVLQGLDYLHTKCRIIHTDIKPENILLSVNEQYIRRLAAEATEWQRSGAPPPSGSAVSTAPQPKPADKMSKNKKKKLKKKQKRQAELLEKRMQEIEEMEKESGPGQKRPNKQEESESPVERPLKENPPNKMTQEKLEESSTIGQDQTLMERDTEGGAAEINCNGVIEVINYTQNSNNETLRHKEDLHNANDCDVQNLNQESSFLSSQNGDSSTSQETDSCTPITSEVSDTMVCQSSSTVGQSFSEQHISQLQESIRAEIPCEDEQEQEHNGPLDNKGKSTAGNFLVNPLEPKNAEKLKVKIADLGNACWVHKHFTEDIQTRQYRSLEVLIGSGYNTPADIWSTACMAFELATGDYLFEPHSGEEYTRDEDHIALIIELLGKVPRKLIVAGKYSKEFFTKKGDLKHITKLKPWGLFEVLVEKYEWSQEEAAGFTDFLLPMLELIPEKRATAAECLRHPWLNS
Procedure: as §1, §2, §3, §4

SYK = SYK (Homo sapiens, UniProt P43405)
Procedure: as §1, §2, §3, §4

SmMLCK = SmMLCK (Homo sapiens, UniProt Q15746)
Procedure: as §1, §2, §3, §4

Src = Src (Homo sapiens, UniProt P12931)
Procedure: as §1, §2, §3, §4

TAK1 = TAK1 (Homo sapiens, UniProt O43318)
Chain of TAK1 (O43318 1-303 limits assumed): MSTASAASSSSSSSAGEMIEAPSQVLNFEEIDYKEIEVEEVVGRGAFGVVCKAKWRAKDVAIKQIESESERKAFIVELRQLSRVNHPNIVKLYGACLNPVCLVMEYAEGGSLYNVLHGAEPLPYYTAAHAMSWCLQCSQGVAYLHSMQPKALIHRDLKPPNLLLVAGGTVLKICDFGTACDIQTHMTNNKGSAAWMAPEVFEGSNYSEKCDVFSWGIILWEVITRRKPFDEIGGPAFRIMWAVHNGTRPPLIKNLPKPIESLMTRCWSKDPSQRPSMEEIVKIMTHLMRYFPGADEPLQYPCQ
Procedure: as §1, §2, §3, §4

TBK1 = TBK1 (Homo sapiens, UniProt Q9UHD2)
Procedure: as §1, §2, §3, §4

TTK = TTK (Homo sapiens, UniProt P33981)
Procedure: as §1, §2, §3, §4

VEG-FR = VEG-FR (Homo sapiens, UniProt P17948)
Chain of VEG-FR (P17948 27-1338): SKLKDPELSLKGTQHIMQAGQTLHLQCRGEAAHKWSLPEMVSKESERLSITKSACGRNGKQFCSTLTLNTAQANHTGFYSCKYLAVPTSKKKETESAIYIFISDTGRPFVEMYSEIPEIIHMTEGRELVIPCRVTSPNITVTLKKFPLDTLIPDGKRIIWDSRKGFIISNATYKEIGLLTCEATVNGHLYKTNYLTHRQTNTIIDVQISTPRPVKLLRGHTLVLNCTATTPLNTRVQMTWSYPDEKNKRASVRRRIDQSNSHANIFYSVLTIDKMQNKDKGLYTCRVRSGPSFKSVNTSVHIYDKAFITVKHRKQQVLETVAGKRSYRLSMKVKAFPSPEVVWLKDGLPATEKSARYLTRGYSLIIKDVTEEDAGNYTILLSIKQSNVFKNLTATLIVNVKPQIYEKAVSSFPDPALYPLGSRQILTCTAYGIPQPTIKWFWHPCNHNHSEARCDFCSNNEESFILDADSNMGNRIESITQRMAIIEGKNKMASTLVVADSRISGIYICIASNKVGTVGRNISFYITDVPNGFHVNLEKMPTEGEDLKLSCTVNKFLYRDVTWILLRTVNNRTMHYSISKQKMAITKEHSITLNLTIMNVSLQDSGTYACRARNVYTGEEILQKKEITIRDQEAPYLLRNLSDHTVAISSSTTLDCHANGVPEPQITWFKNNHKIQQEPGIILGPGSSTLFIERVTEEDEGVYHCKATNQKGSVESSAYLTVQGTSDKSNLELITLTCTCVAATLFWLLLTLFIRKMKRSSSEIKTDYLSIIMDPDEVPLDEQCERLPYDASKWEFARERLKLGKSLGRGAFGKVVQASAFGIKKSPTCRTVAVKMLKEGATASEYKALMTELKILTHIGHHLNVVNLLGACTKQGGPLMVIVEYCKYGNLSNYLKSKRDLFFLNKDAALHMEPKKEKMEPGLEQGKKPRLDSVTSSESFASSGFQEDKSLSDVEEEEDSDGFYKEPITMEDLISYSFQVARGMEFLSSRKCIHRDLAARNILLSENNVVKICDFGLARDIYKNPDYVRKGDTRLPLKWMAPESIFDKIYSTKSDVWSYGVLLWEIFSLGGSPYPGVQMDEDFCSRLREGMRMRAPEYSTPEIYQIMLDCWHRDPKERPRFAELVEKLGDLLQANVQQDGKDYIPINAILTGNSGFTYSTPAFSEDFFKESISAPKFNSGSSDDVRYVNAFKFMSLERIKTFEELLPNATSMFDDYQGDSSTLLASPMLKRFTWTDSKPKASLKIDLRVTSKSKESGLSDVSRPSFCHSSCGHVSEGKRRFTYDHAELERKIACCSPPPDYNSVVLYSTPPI
Procedure: as §1, §2, §3, §4

p38a MAPK = p38a MAPK (Homo sapiens, UniProt Q16539)
Procedure: as §1, §2, §3, §4

For `COC(=O)[C@H](C)[C@@H]1N=C(c2ccc(Cl)cc2)c2ccc(OC)cc2-n2c(C)nnc21` [(2R,3S)-7], the remaining activity at 1 µM (AMPK (hum)) was 104%, the remaining activity at 1 µM (Aurora B) was 94% and the remaining activity at 1 µM (BTK) was 96%. The remaining activity at 1 µM (CAMK1) was 94%, the remaining activity at 1 µM (CAMKKb) was 101% and the remaining activity at 1 µM (CK1δ) was 93%. It also gave a remaining activity at 1 µM (CK2) of 97%, a remaining activity at 1 µM (DYRK1A) of 80% and a remaining activity at 1 µM (EF2K) of 97%. It also gave a remaining activity at 1 µM (GSK3b) of 95%, a remaining activity at 1 µM (HER4) of 114% and a remaining activity at 1 µM (HIPK2) of 99%. For the same molecule, the remaining activity at 1 µM (IGF-1R) was 93%, the remaining activity at 1 µM (IRAK4) was 114% and the remaining activity at 1 µM (JAK3) was 95%. The remaining activity at 1 µM (JNK1) was 89%, the remaining activity at 1 µM (LKB1) was 91% and the remaining activity at 1 µM (MARK3) was 94%. The remaining activity at 1 µM (MLK3) was 100%, the remaining activity at 1 µM (MSK1) was 94% and the remaining activity at 1 µM (MST2) was 118%. It also gave a remaining activity at 1 µM (NEK6) of 109%, a remaining activity at 1 µM (PAK4) of 104% and a remaining activity at 1 µM (PDK1) of 97%. For the same molecule, the remaining activity at 1 µM (PIM1) was 106%, the remaining activity at 1 µM (PKA) was 92% and the remaining activity at 1 µM (PKBa) was 95%. The remaining activity at 1 µM (PKD1) was 78%, the remaining activity at 1 µM (PRK2) was 100% and the remaining activity at 1 µM (RIPK2) was 103%. For the same molecule, the remaining activity at 1 µM (ROCK 2) was 88%, the remaining activity at 1 µM (RSK1) was 99% and the remaining activity at 1 µM (S6K1) was 93%. It also gave a remaining activity at 1 µM (SGK1) of 103%, a remaining activity at 1 µM (SRPK1) of 79% and a remaining activity at 1 µM (SYK) of 98%. It also gave a remaining activity at 1 µM (SmMLCK) of 112%, a remaining activity at 1 µM (Src) of 82% and a remaining activity at 1 µM (TAK1) of 108%. For the same molecule, the remaining activity at 1 µM (TBK1) was 98%, the remaining activity at 1 µM (TTK) was 102% and the remaining activity at 1 µM (VEG-FR) was 89%. The remaining activity at 1 µM (p38a MAPK) was 101%.
